Assay results from patent publication US12133907B2, “Lipophilic third generation retinoid” (Actera Ingredients, Inc., priority 2021, dated 2024).
Read-outs that look alike come from different tables or passages of the source.

Key:
[1] = Adapalene oleyl ester dissolved in squalane (premix properties); type: physicochemical; conditions: for physical form of the premix in squalane: 20% by weight in squalane
From the text: The adapalene ester can be formulated in a premix composition with a non-polar lipophilic carrier at even higher concentrations of the adapalene ester. Typically, the concentration of the adapalene ester in the premix composition will be at least about 10% by weight, and the weight ratio of adapalene ester to lipophilic carrier is from about 1:9 to about 3:7. The premix composition may in the form of a homogeneous liquid solution or single phase amorphous solid.
Adapalene oleyl ester was dissolved in squalane at a concentration of 20% by weight. […] Rather, the entire premix mass formed a soft amorphous solid paste. The concentrated 20% adapalene oleyl ester in squalane remains a single homogenous soft solid paste with a melting temperature range of 30-35° C. This is a suitable temperature range for use in the manufacturing of finished cosmetics, which are usually manufactured at 30-80° C. This 20% composition can itself melt when in contact with the skin (33° C.). A combination of adapalene oleyl ester with squalane at high concentration, minimum 20%, provides an advantageous skin beauty treatment that can target acne prone skin with 20% or more adapalene ester, which is not possible with highly insoluble pure adapalene.

[2] = cited from earlier work
[3] = Dissolution of lauryl adapalene in MCT oil (caprylic/capric triglyceride) and persistence of the solution; type: physicochemical
Procedure: Approximately 5 grams of lauryl adapalene solids were dissolved in 95 grams of liquid MCT oil (caprylic/capric triglyceride), by heating the mixture to 60° C. for fifteen minutes.

Compound: CCCCCCCC/C=C\CCCCCCCCOC(=O)c1ccc2cc(-c3ccc(OC)c(C45CC6CC(CC(C6)C4)C5)c3)ccc2c1 [Adapalene oleyl ester, adapalene oleyl ester]
- physical form of the premix in squalane [1]: formed a homogenous amorphous solid
- physical form of the premix in squalane ([1]; listed as adapalene C18-1 ester): forms a homogenous amorphous solid
- concentration dissolved in squalane ([1]; squalane premix): 20 % by weight

Compound: COc1ccc(-c2ccc3cc(C(=O)O)ccc3c2)cc1C12CC3CC(CC(C3)C1)C2 [Adapalene, 6-(3-(1-adamantyl)-4-methoxyphenyl)-2-naphthoic acid]
- solubility in ethanol [2]: sparingly soluble
- solubility in oil or water [2]: not oil or water soluble
- solubility in oil or water ([2]; listed as adapalene): insoluble in oil or water

Compound: CCCCCCCCCCCCOC(=O)c1ccc2cc(-c3ccc(OC)c(C45CC6CC(CC(C6)C4)C5)c3)ccc2c1 [lauryl adapalene]
- time the solution remained in liquid form ([3]; 5% wt/wt solution in MCT oil, room temperature): more than one week
- concentration of active agent dissolved in liquid MCT oil ([3]; 5 g solids in 95 g MCT oil, heated to 60° C. for fifteen minutes): 5 % wt/wt
